Test results taken from patent US8293729B2 (Boehringer Ingelheim International GmbH, priority 2009, dated 2012).

Biological target: T1, human GPR119 receptor (Homo sapiens, UniProt Q8TDV5, S329A/T327A)
T1 construct: N-terminal leader […]; expressed in transfected cells
T1 sequence (Q8TDV5 with tags, fused parts or gaps T327A/S329A): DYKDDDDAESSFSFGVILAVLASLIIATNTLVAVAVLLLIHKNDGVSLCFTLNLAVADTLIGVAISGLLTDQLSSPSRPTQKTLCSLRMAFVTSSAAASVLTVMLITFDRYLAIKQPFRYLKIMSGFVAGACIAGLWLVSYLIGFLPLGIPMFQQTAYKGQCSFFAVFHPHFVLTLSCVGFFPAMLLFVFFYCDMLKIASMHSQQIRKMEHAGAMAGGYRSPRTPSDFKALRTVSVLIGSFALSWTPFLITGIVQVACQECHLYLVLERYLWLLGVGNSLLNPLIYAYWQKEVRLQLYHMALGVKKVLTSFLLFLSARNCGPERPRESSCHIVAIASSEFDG
Assay: cAMP assay (LANCE cAMP-384) in HEK293 cells stably expressing mutant human GPR119 receptor
Type: cell-based
Settings: HEK293, 20 min; at 10 μM; printed in EC50 column of the 36th table; read-out: stimulation in % at 10 μM
Description: Quantitative detection of cAMP accumulation from cells expressing human GPR119 receptor was achieved using Perkin Elmer's LANCE cAMP-384 Kit (Cat#AD0264) according to the manufacturer's protocol. Briefly, HEK293 cells stably expressing a mutant form of the human GPR119 receptor (Methionine 1 replaced with the amino acid sequence […] (SEQ ID NO: 1), and T327 & S329 changed to alanines) were grown to 50-70% confluency in cell culture media (DMEM, 10% heat inactivated Fetal Bovine Serum, 50 I.U./mL penicillin, 50 μg/mL streptomycin, 10 mM HEPES, 20 μg/mL G418 Sulfate). On the day of the assay, GPR119 stable HEK293 cells were lifted from the tissue culture plate and 1000 cells/well were incubated along with various concentrations of test compounds for 20 min at 37° C. Detection Buffer (50mM HEPES, 10mM calcium chloride, 0.35% Triton X-100, 1 mg/mL BSA) containing cAMP-specific antibody was then added to all wells and allowed to equilibrate in the dark for 10 minutes at room temperature. Upon equilibration, Detection Buffer containing europium-labeled cAMP tracer complex was added to all wells and allowed to react for 1 hour at room temperature. After 1 hour, bound europium-labeled cAMP tracer was measured using a Perkin Elmer ViewLux. The quantity of cAMP generated in each well was derived from a standard curve. EC50 was determined using nonlinear regression analysis of the cAMP values over a range of agonist concentration (12 points spanning the range from 30 μM to 100pM).
For some compounds for which no EC50 value could be determined, the efficacy is provided at a single concentration (10 μM) yielding % stimulation values.

| SMILES | activation at 10 µM |
| --- | --- |
| CC(C)CN1CCC(ON=C2CCN(c3ccc(S(C)(=O)=O)cc3F)CC2)CC1 [Example 66-21] | 64% |
| Cc1cc(CN2CCC(ON=C3CCN(c4ccc(S(C)(=O)=O)cc4F)CC3)CC2)oc1C [Example 66-34] | 75% |
| COc1ccccc1CN1CCC(ON=C2CCN(c3ccc(S(C)(=O)=O)cc3F)CC2)CC1 [Example 66-18] | 66% |
| CC(CCN1CCC(ON=C2CCN(c3ccc(S(C)(=O)=O)cc3F)CC2)CC1)c1ccccc1 (stereo not drawn) [Example 66-24] | 53% |

Same assay, conditions: HEK293, 20 min; single concentration 10 μM; given where no EC50 value could be determined; read-out: % stimulation at 10 μM

| SMILES | activation at 10 µM |
| --- | --- |
| COc1cccc(-c2cc(F)c(N3CCC(=NOC4CCN(C(=O)OC(C)C)CC4)CC3)cc2F)n1 [Example 27-11] | 80% |

Same assay, conditions: cAMP accumulation, HEK293 cells stably expressing mutant human GPR119; read-out: EC50

| SMILES | EC50 |
| --- | --- |
| Cc1ccn(Cc2cc(F)c(N3CCC(=NOC4CCN(C(=O)OC(C)C)CC4)CC3)cc2F)n1 [Example 14-9] | 257 nM |
| CC(C)OC(=O)N1CCC(ON=C2CCN(c3ccccc3)CC2)CC1 [Example 32-1, 4-(1-Phenyl-piperidin-4-ylideneaminooxy)-piperidine-1-carboxylic acid isopropyl ester] | > 10000 nM |
| CCS(=O)(=O)NCc1cc(F)c(N2CCC(=NOC3CCN(C(=O)OC(C)C)CC3)CC2)cc1F [Example 16-6] | 113 nM |
| CC(C)OC(=O)N1CCC(ON=C2CCN(c3ccc(C=O)cc3Cl)CC2)CC1 [Example 2-31] | 1250 nM |
| CC(C)OC(=O)N1CCC(ON=C2CCN(c3cc(F)c(CN(C)C)cc3F)CC2)CC1 [Example 5-8] | > 10000 nM |
| CC(C)OC(=O)N1CCC(ON=C2CCN(c3cc(F)c(NC(N)=O)cc3F)CC2)CC1 [Example 37-1, 4-[1-(2,5-Difluoro-4-ureido-phenyl)-piperidin-4-ylideneaminooxy]-piperidine-1-carboxylic acid isopropyl ester] | 71 nM |
| CC(C)OC(=O)N1CCC(ON=C2CCN(c3ccc(-c4cnco4)cc3F)CC2)CC1 [Example 20-2] | 498 nM |
| CCOC(=O)CC(=O)c1cc(F)c(N2CCC(=NOC3CCN(C(=O)OC(C)C)CC3)CC2)nc1Cl [Example 2-48] | 146 nM |
| COCc1cc(F)c(N2CCC(=NOC3CCN(C(=O)OC(C)C)CC3)CC2)cc1F [Example 49-1, 4-[1-(2,5-Difluoro-4-methoxymethyl-phenyl)-piperidin-4-ylideneaminooxy]-piperidine-1-carboxylic acid isopropyl ester] | 265 nM |
| CC(C)OC(=O)N1CCC(ON=C2CCN(c3ccc4c(c3)CCC4=O)CC2)CC1 [Example 2-38] | > 10000 nM |
| CC(C)OC(=O)N1CCC(ON=C2CCN(c3ncc(C#N)c(N)n3)CC2)CC1 [Example 2-18] | > 10000 nM |
| CC(C)OC(=O)N1CCC(ON=C2CCN(c3cc(F)c(NS(N)(=O)=O)cc3F)CC2)CC1 [Example 38-1] | 197 nM |
| Cc1nc(N2CCC(=NOC3CCN(C(=O)OC(C)C)CC3)CC2)c(F)cc1CO [Example 55-1, 4-(3′-Fluoro-5′-hydroxymethyl-6′-methyl-2,3,5,6-tetrahydro-[1,2′]bipyridinyl-4-ylideneaminooxy)-piperidine-1-carboxylic acid isopropyl ester] | 206 nM |

Same assay, conditions: the 15th table; read-out: EC50

| SMILES | EC50 |
| --- | --- |
| CC(C)OC(=O)N1CCC(ON=C2CCN(c3cc(F)c(C(=O)N4CCC[C@H]4CN)cc3F)CC2)CC1 [Example 29-58] | 189 nM |
| CNCCN(C)C(=O)c1cc(F)c(N2CCC(=NOC3CCN(C(=O)OC(C)C)CC3)CC2)cc1F [Example 29-5] | 215 nM |

Same assay, conditions: the 19th table; unit inferred; read-out: EC 50

| SMILES | EC50 |
| --- | --- |
| CCc1cnc(N2CCC(ON=C3CCN(c4cc(F)c(C(=O)N5CC[C@H](N)C5)cc4F)CC3)CC2)nc1 [Example 29-119] | 75 nM |
| CCc1cnc(N2CCC(ON=C3CCN(c4cc(F)c(C(=O)N5CCCC(CN)C5)cc4F)CC3)CC2)nc1 (stereo not drawn) [Example 29-124] | 55 nM |
| CCc1cnc(N2CCC(ON=C3CCN(c4cc(F)c(C(=O)NCC5COCCN5)cc4F)CC3)CC2)nc1 (stereo not drawn) [Example 29-87] | 128 nM |
| CCc1cnc(N2CCC(ON=C3CCN(c4cc(F)c(C(=O)NC5CNC5)cc4F)CC3)CC2)nc1 [Example 29-116] | 322 nM |
| CCc1cnc(N2CCC(ON=C3CCN(c4cc(F)c(C(=O)N5CCC(N)CC5)cc4F)CC3)CC2)nc1 [Example 29-126] | 469 nM |
| CCc1cnc(N2CCC(ON=C3CCN(c4cc(F)c(C(=O)N5CC[C@H](CN)C5)cc4F)CC3)CC2)nc1 [Example 29-120] | 202 nM |
| CCc1cnc(N2CCC(ON=C3CCN(c4cc(F)c(C(=O)NC5CCCNC5)cc4F)CC3)CC2)nc1 (stereo not drawn) [Example 29-127] | 322 nM |

Same assay, conditions: the 26th table; read-out: EC50

| SMILES | EC50 |
| --- | --- |
| CC(C)OC(=O)N1CCC(ON=C2CCN(c3cc(F)c(S(C)(=O)=O)cc3F)CC2)CC1 [Example 46-2] | 28 nM |

Same assay, conditions: the 30th table; read-out: EC50

| SMILES | EC50 |
| --- | --- |
| Cc1nnnn1Cc1cnc(N2CCC(=NOC3CCN(C(=O)OC(C)C)CC3)CC2)c(F)c1 [Example 54-6] | 1150 nM |

Same assay, conditions: the 32nd table; read-out: EC50

| SMILES | EC50 |
| --- | --- |
| CS(=O)(=O)c1ccc(N2CCC(=NOC3CCN(c4nccc(Cl)n4)CC3)CC2)c(F)c1 [Example 63-6] | 1340 nM |
| CS(=O)(=O)c1ccc(N2CCC(=NOC3CCN(c4ccc(C(F)(F)F)cn4)CC3)CC2)c(F)c1 [Example 63-14] | 495 nM |
| CS(=O)(=O)c1ccc(N2CCC(=NOC3CCN(c4ccccn4)CC3)CC2)c(F)c1 [Example 63-1, 1-(2-Fluoro-4-methanesulfonyl-phenyl)-piperidin-4-one O-(3,4,5,6-tetrahydro-2H-[1,2′]bipyridinyl-4-yl)-oxime] | 459 nM |

Same assay, conditions: the 33rd table; read-out: EC50

| SMILES | EC50 |
| --- | --- |
| CS(=O)(=O)c1ccc(N2CCC(=NOC3CCN(C(=O)OCc4ccccn4)CC3)CC2)c(F)c1 [Example 64-17] | 1070 nM |
| CS(=O)(=O)c1ccc(N2CCC(=NOC3CCN(C(=O)OCC4CCC4)CC3)CC2)c(F)c1 [Example 64-6] | 36 nM |
| COC(=O)[C@@H](C)COC(=O)N1CCC(ON=C2CCN(c3ccc(S(C)(=O)=O)cc3F)CC2)CC1 [Example 64-24] | 708 nM |
| CS(=O)(=O)c1ccc(N2CCC(=NOC3CCN(C(=O)OCC4CC4)CC3)CC2)c(F)c1 [Example 64-2] | 101 nM |
| CS(=O)(=O)c1ccc(N2CCC(=NOC3CCN(C(=O)OCCN4CCCC4)CC3)CC2)c(F)c1 [Example 64-20] | > 10000 nM |
| CS(=O)(=O)c1ccc(N2CCC(=NOC3CCN(C(=O)OC4CCC4)CC3)CC2)c(F)c1 [Example 64-1, 4-[1-(2-Fluoro-4-methanesulfonyl-phenyl)-piperidin-4-ylideneaminooxy]-piperidine-1-carboxylic acid cyclobutyl ester] | 81 nM |

Same assay, conditions: the 34th table, compounds 65-1 to 65-24; read-out: EC50

| SMILES | EC50 |
| --- | --- |
| CS(=O)(=O)c1ccc(N2CCC(=NOC3CCN(CC(=O)Nc4ccccc4)CC3)CC2)c(F)c1 [Example 65-2] | > 10000 nM |
| CS(=O)(=O)c1ccc(N2CCC(=NOC3CCN(C(=O)Nc4ccccc4)CC3)CC2)c(F)c1 [Example 65-17] | 2040 nM |
| CS(=O)(=O)c1ccc(N2CCC(=NOC3CCN(C(=S)NC4CC4)CC3)CC2)c(F)c1 [Example 65-10] | > 10000 nM |

Same assay, conditions: the 35th table, compounds 65-25 to 65-36; read-out: EC50

| SMILES | EC50 |
| --- | --- |
| CS(=O)(=O)c1cc(F)c(N2CCC(=NOC3CCN(C(=O)Cc4ccccc4)CC3)CC2)cc1F [Example 65-28] | 240 nM |

Same assay, conditions: the 36th table, compounds 66-1 to 66-51; read-out: EC50

| SMILES | EC50 |
| --- | --- |
| CS(=O)(=O)c1ccc(N2CCC(=NOC3CCN(Cc4ccccc4F)CC3)CC2)c(F)c1 [Example 66-16] | 560 nM |
| CCc1ccc(CN2CCC(ON=C3CCN(c4ccc(S(C)(=O)=O)cc4F)CC3)CC2)cc1 [Example 66-27] | 109 nM |
| Cn1cccc1CN1CCC(ON=C2CCN(c3ccc(S(C)(=O)=O)cc3F)CC2)CC1 [Example 66-1, 1-(2-Fluoro-4-methanesulfonyl-phenyl)-piperidin-4-one O-[1-(1-methyl-1H-Pyrrol-2-ylmethyl)-piperidin-4-yl]-oxime] | > 10000 nM |

Same assay, conditions: the 37th table, compounds 66-52 to 66-64; read-out: EC50

| SMILES | EC50 |
| --- | --- |
| CCCc1ccc(CN2CCC(ON=C3CCN(c4cc(F)c(S(C)(=O)=O)cc4F)CC3)CC2)cc1F [Example 66-60] | 31 nM |

Same assay, conditions: the 38th table, compounds 66-65 to 66-72; read-out: EC50

| SMILES | EC50 |
| --- | --- |
| CNC(=O)c1cc(F)c(N2CCC(=NOC3CCN(Cc4ccc(-c5ccccn5)cc4)CC3)CC2)cc1F [Example 66-65] | 792 nM |
| CCc1ccc(CN2CCC(ON=C3CCN(c4cc(F)c(C(=O)NC)cc4F)CC3)CC2)cc1 [Example 66-71] | 79 nM |
